Three molecules from BindingDB's records for doi:10.1016/j.bmcl.2005.03.089 (Yunnan University, 2022) can be followed below.

For the test, the target named is Replicase polyprotein 1ab (Severe acute respiratory syndrome coronavirus 2, UniProt P0DTD1). In words: Inhibition of SARS-CoV-2 MPro incubated for 5 mins by FRET assay.

The molecule `CC(C)=CCc1cc(/C=C2\OC(=O)C(c3cc4c(cc3O)OC(C)(C)CC4)=C2O)ccc1O` came in with a concentration for half-maximal inhibition (IC50) of 10.3 µM. With `CC(C)(O)C1Cc2cc(/C=C3\OC(=O)C(c4cc5c(cc4O)OC(C)(C)C(O)C5)=C3O)ccc2O1` (stereo not drawn) the figure was 9.4 µM; with `CC(C)=CCc1cc(/C=C2\OC(=O)C(c3cc(CCC(C)(C)O)c(O)cc3O)=C2O)ccc1O`, 7.7 µM.

One may read the IC50 as the point on the concentration scale where inhibition reaches its midpoint. A lower IC50 goes with greater potency.
